Test results published in ChEMBL document CHEMBL4004849, “Tetrazolylmethyl quinolines: Design, docking studies, synthesis, anticancer and antifungal analyses” (2017).
Activity calls are given as the source filed them.

How the values were obtained:
Type in all cases: functional
RXF 393 = experiment: Growth inhibition of human RXF393 cells at 10^-5 M incubated for 48 hrs by sulforhodamine B assay relative to control
HT-29 = experiment: Growth inhibition of human HT-29 cells at 10^-5 M incubated for 48 hrs by sulforhodamine B assay relative to control
CAKI-1 = experiment: Growth inhibition of human Caki1 cells at 10^-5 M incubated for 48 hrs by sulforhodamine B assay relative to control
DU-145 = experiment: Growth inhibition of human DU145 cells at 10^-5 M incubated for 48 hrs by sulforhodamine B assay relative to control
U-251 = experiment: Growth inhibition of human U251 cells at 10^-5 M incubated for 48 hrs by sulforhodamine B assay relative to control
NCI-H226 = experiment: Growth inhibition of human NCI-H226 cells at 10^-5 M incubated for 48 hrs by sulforhodamine B assay relative to control
HCT-116 = experiment: Growth inhibition of human HCT116 cells at 10^-5 M incubated for 48 hrs by sulforhodamine B assay relative to control
IGROV-1 = experiment: Growth inhibition of human IGROV1 cells at 10^-5 M incubated for 48 hrs by sulforhodamine B assay relative to control
SF-268 = experiment: Growth inhibition of human SF268 cells at 10^-5 M incubated for 48 hrs by sulforhodamine B assay relative to control
A549 = experiment: Growth inhibition of human A549/ATCC cells at 10^-5 M incubated for 48 hrs by sulforhodamine B assay relative to control
NCI-H522 = experiment: Growth inhibition of human NCI-H522 cells at 10^-5 M incubated for 48 hrs by sulforhodamine B assay relative to control
MOLT-4 = experiment: Growth inhibition of human MOLT4 cells at 10^-5 M incubated for 48 hrs by sulforhodamine B assay relative to control

Measured: growth inhibition (GI)

Clc1nc2ccccc2cc1Cn1nnnc1Cc1ccccc1
active: RXF 393 | HT-29 | CAKI-1 | DU-145 | U-251 | NCI-H226 | HCT-116 | IGROV-1 | SF-268 | A549 | NCI-H522 | MOLT-4

Fc1ccc2nc(Cl)c(Cn3nnnc3CSc3ccccc3)cc2c1
active: RXF 393 | HT-29 | CAKI-1 | DU-145 | U-251 | NCI-H226 | HCT-116 | IGROV-1 | SF-268 | A549 | NCI-H522 | MOLT-4

Fc1ccc2nc(Cl)c(Cn3nnc(Cc4ccccc4)n3)cc2c1
active: RXF 393 | HT-29 | CAKI-1 | DU-145 | U-251 | NCI-H226 | HCT-116 | IGROV-1 | SF-268 | A549 | NCI-H522 | MOLT-4

Clc1nc2ccccc2cc1Cn1nnc(CSc2ccccc2)n1
active: RXF 393 | HT-29 | CAKI-1 | DU-145 | U-251 | NCI-H226 | HCT-116 | IGROV-1 | SF-268 | A549 | NCI-H522 | MOLT-4

COc1ccc2nc(Cl)c(Cn3nnnc3Cc3ccccc3)cc2c1
active: RXF 393 | HT-29 | CAKI-1 | DU-145 | U-251 | NCI-H226 | HCT-116 | IGROV-1 | SF-268 | A549 | NCI-H522 | MOLT-4

Clc1nc2ccccc2cc1Cn1nnnc1CSc1ccccc1
active: RXF 393 | HT-29 | CAKI-1 | DU-145 | U-251 | NCI-H226 | HCT-116 | IGROV-1 | SF-268 | A549 | NCI-H522 | MOLT-4
